Where “and” joins values, the source holds several entries; their conditions need not be identical. Equal entries are not always repeated.
Test system: Swiss mice, Sarcoma 180 sc, mean tumor weight T/C
Test: NCI In Vivo Anticancer Drug Screen. Data for tumor model Sarcoma 180 (subcutaneous) in Swiss mice
Details: endpoint: mean tumor weight, higher = larger tumour
Outline: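 Antitumor activity is assessed in mice with transplantable tumors. Treated (T) and vehicle control (C) groups are compared on survival or tumor size.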

SMILES: CC[C@H](c1ccc(O)cc1)[C@@H](CC)c1ccc(O)cc1
- T/C (dose: 3.8 mg/kg/injection, schedule: Q01DX007 (sc), vehicle: steriod suspending solution): 186 % of control
- T/C (dose: 7.5 mg/kg/injection, schedule: Q01DX007 (sc), vehicle: steriod suspending solution): 67 % of control
- T/C (dose: 15.0 mg/kg/injection, schedule: Q01DX007 (sc), vehicle: steriod suspending solution): 37 % of control and 43 % of control
- T/C (dose: 62.0 mg/kg/injection, schedule: Q01DX007 (sc), vehicle: steriod suspending solution): 49 % of control and 67 % of control
- T/C (dose: 125.0 mg/kg/injection, schedule: Q01DX007 (sc), vehicle: steriod suspending solution): 40 % of control and 43 % of control
- T/C (dose: 250.0 mg/kg/injection, schedule: Q01DX007 (sc), vehicle: steriod suspending solution): 54 % of control

SMILES: CN1CCC23c4c5ccc(O)c4OC2C(O)C=CC3C1C5 (stereo unspecified)
- T/C (dose: 62.0 mg/kg/injection, schedule: Q01DX007 (ip), vehicle: saline): 90 % of control
- T/C (dose: 125.0 mg/kg/injection, schedule: Q01DX007 (ip), vehicle: saline): 99 % of control
- T/C (dose: 250.0 mg/kg/injection, schedule: Q01DX007 (ip), vehicle: saline): 48 % of control

SMILES: CC1C[C@@H]2[C@H]([C@@H](O)C[C@@]3(C)[C@H]2CC[C@]3(O)C(=O)CF)[C@@]2(C)CCC(=O)C=C12 (stereo partly specified)
- T/C (dose: 5.2 mg/kg/injection, schedule: Q01DX007 (sc), vehicle: steriod suspending solution): 106 % of control
- T/C (dose: 10.5 mg/kg/injection, schedule: Q01DX007 (sc), vehicle: steriod suspending solution): 105 % of control
- T/C (dose: 21.2 mg/kg/injection, schedule: Q01DX007 (sc), vehicle: steriod suspending solution): 81 % of control
- T/C (dose: 42.5 mg/kg/injection, schedule: Q01DX007 (sc), vehicle: steriod suspending solution): 45 % of control
- T/C (dose: 62.0 mg/kg/injection, schedule: Q#A X014 (sc), vehicle: steriod suspending solution): 55 % of control and 57 % of control
- T/C (dose: 85.0 mg/kg/injection, schedule: Q01DX007 (sc), vehicle: steriod suspending solution): 25 % of control
- T/C (dose: 93.5 mg/kg/injection, schedule: Q#A X014 (sc), vehicle: steriod suspending solution): 36 % of control and 41 % of control and 50 % of control
- T/C (dose: 210.75 mg/kg/injection, schedule: Q#A X014 (sc), vehicle: steriod suspending solution): 38 % of control and 52 % of control
- T/C (dose: 300.0 mg/kg/injection, schedule: Q01DX007 (sc), vehicle: steriod suspending solution): 26 % of control
- T/C (dose: 600.0 mg/kg/injection, schedule: Q01DX007 (sc), vehicle: steriod suspending solution): 20 % of control

SMILES: CCOC(=O)C(N)Cc1ccc(N(CCCl)CCCl)cc1 (stereo unspecified)
- T/C (dose: 1.4 mg/kg/injection, schedule: Q01DX007 (ip), vehicle: saline): 41 % of control
- T/C (dose: 2.7 mg/kg/injection, schedule: Q01DX007 (ip), vehicle: saline): 93 % of control
- T/C (dose: 4.1 mg/kg/injection, schedule: Q01DX007 (ip), vehicle: saline): 9 % of control
- T/C (dose: 5.0 mg/kg/injection, schedule: Q01DX007 (ip), vehicle: carboxymethylcellulose (CMC)): 90 % of control
- T/C (dose: 5.5 mg/kg/injection, schedule: Q01DX007 (ip), vehicle: saline): 32 % of control and 49 % of control
- T/C (dose: 8.0 mg/kg/injection, schedule: Q01DX007 (ip), vehicle: carboxymethylcellulose (CMC)): 83 % of control
- T/C (dose: 8.3 mg/kg/injection, schedule: Q01DX007 (ip), vehicle: saline): 15 % of control and 20 % of control
- T/C (dose: 12.0 mg/kg/injection, schedule: Q01DX007 (ip), vehicle: carboxymethylcellulose (CMC)): 59 % of control
- T/C (dose: 12.5 mg/kg/injection, schedule: Q01DX007 (ip), vehicle: saline): 7 % of control
- T/C (dose: 18.0 mg/kg/injection, schedule: Q01DX007 (ip), vehicle: carboxymethylcellulose (CMC)): 29 % of control and 42 % of control
- T/C (dose: 27.0 mg/kg/injection, schedule: Q01DX007 (ip), vehicle: carboxymethylcellulose (CMC)): 15 % of control

SMILES: CC(=O)C1(/C(C)=C/C2C(C=O)=CC(C)(C)C2O)CC1 (stereo unspecified)
- T/C (dose: 0.25 mg/kg/injection, schedule: Q01DX007 (ip), vehicle: saline): 106 % of control
- T/C (dose: 0.5 mg/kg/injection, schedule: Q01DX007 (ip), vehicle: saline): 59 % of control
- T/C (dose: 1.0 mg/kg/injection, schedule: Q01DX007 (ip), vehicle: saline): 65 % of control
- T/C (dose: 2.0 mg/kg/injection, schedule: Q01DX007 (ip), vehicle: saline): 67 % of control
- T/C (dose: 8.0 mg/kg/injection, schedule: Q01DX007 (ip), vehicle: saline): 75 % of control
- T/C (dose: 16.0 mg/kg/injection, schedule: Q01DX007 (ip), vehicle: saline): 94 % of control and 102 % of control
- T/C (dose: 32.0 mg/kg/injection, schedule: Q01DX007 (ip), vehicle: saline): 99 % of control
- T/C (dose: 64.0 mg/kg/injection, schedule: Q01DX007 (ip), vehicle: saline): 77 % of control
- T/C (dose: 128.0 mg/kg/injection, schedule: Q01DX007 (ip), vehicle: saline): 78 % of control

SMILES: COC1N(C2CC(O)C(CO)O2)C(=O)NC(=O)C1(F)Br (stereo unspecified)
- T/C (dose: 22.0 mg/kg/injection, schedule: Q01DX007 (ip), vehicle: saline): 85 % of control and 99 % of control
- T/C (dose: 75.0 mg/kg/injection, schedule: Q01DX007 (ip), vehicle: saline): 26 % of control and 43 % of control

SMILES: CCCCCCCCCCCCCCCCNc1cccc2ccccc12
- T/C (dose: 111.0 mg/kg/injection, schedule: Q#A X014 (ip), vehicle: methylcellulose (MC)): 64 % of control and 82 % of control
- T/C (dose: 166.5 mg/kg/injection, schedule: Q#A X014 (ip), vehicle: methylcellulose (MC)): 49 % of control and 66 % of control
- T/C (dose: 250.0 mg/kg/injection, schedule: Q#A X014 (ip), vehicle: methylcellulose (MC)): 41 % of control

SMILES: Cn1cc(F)c(=O)[nH]c1=O
- T/C (dose: 10.0 mg/kg/injection, schedule: Q01DX007 (ip), vehicle: carboxymethylcellulose (CMC)): 99 % of control and 112 % of control
- T/C (dose: 20.0 mg/kg/injection, schedule: Q01DX007 (ip), vehicle: carboxymethylcellulose (CMC)): 88 % of control and 94 % of control
- T/C (dose: 80.0 mg/kg/injection, schedule: Q01DX007 (ip), vehicle: carboxymethylcellulose (CMC)): 95 % of control

SMILES: CC(=O)Nc1cc2c(cc1Br)-c1ccccc1C2O (stereo unspecified)
- T/C (dose: 48.0 mg/kg/injection, schedule: Q01DX007 (ip), vehicle: other): 60 % of control
- T/C (dose: 73.0 mg/kg/injection, schedule: Q01DX007 (ip), vehicle: other): 93 % of control
- T/C (dose: 130.0 mg/kg/injection, schedule: Q01DX007 (ip), vehicle: saline): 40 % of control and 56 % of control
- T/C (dose: 195.0 mg/kg/injection, schedule: Q01DX007 (ip), vehicle: saline): 107 % of control
- T/C (dose: 250.0 mg/kg/injection, schedule: Q01DX007 (ip), vehicle: other): 36 % of control
- T/C (dose: 375.0 mg/kg/injection, schedule: Q01DX007 (ip), vehicle: other): 46 % of control
- T/C (dose: 560.0 mg/kg/injection, schedule: Q01DX007 (ip), vehicle: other): 32 % of control

SMILES: CC1=C2C(=C[C@@](C)(CO)[C@@H]2O)C(=O)[C@](C)(O)C12CC2
- T/C (dose: 0.8 mg/kg/injection, schedule: Q01DX007 (ip), vehicle: saline): 67 % of control and 78 % of control
- T/C (dose: 1.6 mg/kg/injection, schedule: Q01DX007 (ip), vehicle: saline): 45 % of control

— PubChem BioAssay AID342 (DTP/NCI, 2004)
